The nature of assay [1]: Binding affinity to cloned Nicotinic acetylcholine receptors. The arrangement: species or system Rattus norvegicus.
For the next assay, the target named is Mu-type opioid receptor (Homo sapiens, UniProt P35372). As to the kind of experiment: Binding affinity to cloned Opioid receptor mu 1.
For the next assay, the target named is D(2) dopamine receptor (Rattus norvegicus, UniProt P61169). As to the kind of experiment: In vitro binding affinity to rat Dopamine receptor D2 measured by displacement of the radioligand [3H]spiperone.
Chain of D(2) dopamine receptor (P61169 whole entry): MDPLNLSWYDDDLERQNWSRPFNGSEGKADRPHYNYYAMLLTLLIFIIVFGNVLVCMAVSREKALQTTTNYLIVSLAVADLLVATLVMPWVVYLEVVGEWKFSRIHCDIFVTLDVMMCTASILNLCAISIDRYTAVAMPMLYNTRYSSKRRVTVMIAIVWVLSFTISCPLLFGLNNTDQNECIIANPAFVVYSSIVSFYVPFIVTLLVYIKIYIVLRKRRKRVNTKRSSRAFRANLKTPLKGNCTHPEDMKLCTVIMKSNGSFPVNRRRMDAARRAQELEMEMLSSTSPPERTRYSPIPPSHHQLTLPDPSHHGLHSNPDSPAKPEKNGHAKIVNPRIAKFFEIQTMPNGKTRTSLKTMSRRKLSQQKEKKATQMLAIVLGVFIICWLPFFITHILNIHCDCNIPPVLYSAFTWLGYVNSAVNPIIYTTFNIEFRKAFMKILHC
The target of a further assay is T1, D(4) dopamine receptor (Rattus norvegicus, UniProt P30729).
T1 sequence (P30729 whole entry): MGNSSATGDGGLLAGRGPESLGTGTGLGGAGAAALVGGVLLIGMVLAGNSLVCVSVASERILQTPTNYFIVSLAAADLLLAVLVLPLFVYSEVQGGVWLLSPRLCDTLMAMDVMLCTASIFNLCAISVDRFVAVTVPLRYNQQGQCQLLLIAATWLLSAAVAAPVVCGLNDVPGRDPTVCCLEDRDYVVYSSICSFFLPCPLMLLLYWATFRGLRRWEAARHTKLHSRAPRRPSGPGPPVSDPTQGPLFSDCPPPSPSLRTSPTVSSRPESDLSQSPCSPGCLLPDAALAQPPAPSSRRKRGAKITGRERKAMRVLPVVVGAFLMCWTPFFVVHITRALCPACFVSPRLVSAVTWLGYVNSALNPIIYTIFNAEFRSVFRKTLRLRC
As to the kind of experiment: In vitro binding affinity to rat Dopamine receptor D4 measured by displacement of the radioligand [3H]spiperone.

Assay [2] has as its target 5-hydroxytryptamine receptor 6 (Homo sapiens, UniProt P50406). As to the kind of experiment: In vitro binding affinity to human 5-hydroxytryptamine 6 receptor.
Assay [3] has as its target T2, Muscarinic acetylcholine receptor M5 (Homo sapiens, UniProt P08912).
T2 sequence (P08912 whole entry): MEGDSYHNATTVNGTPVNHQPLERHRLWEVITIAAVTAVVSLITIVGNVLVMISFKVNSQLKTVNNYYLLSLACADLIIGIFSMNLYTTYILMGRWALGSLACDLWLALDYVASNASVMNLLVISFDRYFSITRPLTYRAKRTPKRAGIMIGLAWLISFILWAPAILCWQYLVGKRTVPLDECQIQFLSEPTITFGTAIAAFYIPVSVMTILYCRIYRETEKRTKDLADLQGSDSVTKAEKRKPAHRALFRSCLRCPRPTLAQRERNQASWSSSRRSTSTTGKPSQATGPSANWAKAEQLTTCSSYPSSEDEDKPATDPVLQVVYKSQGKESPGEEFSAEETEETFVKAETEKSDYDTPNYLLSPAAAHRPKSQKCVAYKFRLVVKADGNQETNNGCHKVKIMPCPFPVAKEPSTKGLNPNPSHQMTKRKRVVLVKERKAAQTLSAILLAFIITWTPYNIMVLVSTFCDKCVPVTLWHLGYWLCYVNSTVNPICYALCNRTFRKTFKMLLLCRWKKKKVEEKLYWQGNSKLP
As to the kind of experiment: Binding affinity to cloned Muscarinic acetylcholine receptor M5.

Assay [4] addresses T3, Muscarinic acetylcholine receptor M2 (Homo sapiens, UniProt P08172).
T3 sequence (P08172 whole entry): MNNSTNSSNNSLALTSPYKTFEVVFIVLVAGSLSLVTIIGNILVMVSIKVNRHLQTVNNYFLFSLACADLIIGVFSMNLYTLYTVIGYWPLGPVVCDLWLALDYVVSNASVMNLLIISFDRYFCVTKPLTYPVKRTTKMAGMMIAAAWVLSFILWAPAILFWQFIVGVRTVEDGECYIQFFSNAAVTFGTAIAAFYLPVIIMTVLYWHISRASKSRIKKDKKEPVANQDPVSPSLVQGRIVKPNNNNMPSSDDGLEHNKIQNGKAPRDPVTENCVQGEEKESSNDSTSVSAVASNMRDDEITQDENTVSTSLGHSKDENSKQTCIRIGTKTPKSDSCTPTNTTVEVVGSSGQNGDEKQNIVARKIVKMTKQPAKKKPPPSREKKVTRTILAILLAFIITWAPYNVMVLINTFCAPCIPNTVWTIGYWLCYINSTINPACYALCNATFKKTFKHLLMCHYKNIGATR
As to the kind of experiment: Binding affinity to cloned Muscarinic acetylcholine receptor M2.

Assay [5] deals with Glutamate [NMDA] receptor. As to the kind of experiment: Binding affinity for N-methyl-D-aspartate glutamate receptor. In kind it is protein-complex assay.
Assay [6] deals with 5-hydroxytryptamine receptor 5A (Homo sapiens, UniProt P47898). As to the kind of experiment: Binding affinity to cloned human 5-hydroxytryptamine 5A receptor.
Chain of 5-hydroxytryptamine receptor 5A (P47898 whole entry): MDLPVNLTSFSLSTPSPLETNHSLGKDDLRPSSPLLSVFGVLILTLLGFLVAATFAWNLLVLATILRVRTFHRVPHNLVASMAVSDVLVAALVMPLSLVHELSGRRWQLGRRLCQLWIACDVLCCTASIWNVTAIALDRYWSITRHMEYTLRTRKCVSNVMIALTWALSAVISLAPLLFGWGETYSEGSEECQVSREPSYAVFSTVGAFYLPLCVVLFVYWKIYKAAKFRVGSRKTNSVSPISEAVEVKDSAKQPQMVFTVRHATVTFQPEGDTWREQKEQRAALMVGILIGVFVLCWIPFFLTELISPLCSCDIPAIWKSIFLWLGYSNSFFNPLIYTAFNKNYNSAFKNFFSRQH
Assay [7] deals with Muscarinic acetylcholine receptor M3 (Homo sapiens, UniProt P20309). As to the kind of experiment: Binding affinity to cloned Muscarinic acetylcholine receptor M3.
Chain of Muscarinic acetylcholine receptor M3 (P20309 whole entry): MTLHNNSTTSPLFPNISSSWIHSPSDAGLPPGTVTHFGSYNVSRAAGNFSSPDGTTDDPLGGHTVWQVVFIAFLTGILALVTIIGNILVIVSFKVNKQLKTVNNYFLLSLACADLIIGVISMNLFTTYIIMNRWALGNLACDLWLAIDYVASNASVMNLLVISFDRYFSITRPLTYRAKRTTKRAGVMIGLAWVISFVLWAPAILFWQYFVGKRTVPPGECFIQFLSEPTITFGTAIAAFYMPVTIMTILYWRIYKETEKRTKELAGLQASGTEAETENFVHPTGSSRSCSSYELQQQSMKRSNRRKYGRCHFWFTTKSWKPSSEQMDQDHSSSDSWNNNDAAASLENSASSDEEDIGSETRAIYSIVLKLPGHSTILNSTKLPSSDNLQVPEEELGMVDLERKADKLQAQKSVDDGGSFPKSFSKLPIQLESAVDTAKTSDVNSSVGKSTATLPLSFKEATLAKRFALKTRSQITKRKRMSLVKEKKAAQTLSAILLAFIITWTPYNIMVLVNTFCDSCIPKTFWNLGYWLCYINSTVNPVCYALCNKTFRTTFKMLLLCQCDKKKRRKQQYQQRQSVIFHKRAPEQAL
Another assay concerns the target Glutamate NMDA receptor. As to the kind of experiment: Binding affinity to PCP site of rat N-methyl-D-aspartate glutamate receptor. In kind it is protein-complex assay.
For assay [8], the target named is 5-hydroxytryptamine receptor 1B (Homo sapiens, UniProt P28222). As to the kind of experiment: Binding affinity to cloned human 5-hydroxytryptamine 1B receptor.
Chain of 5-hydroxytryptamine receptor 1B (P28222 whole entry): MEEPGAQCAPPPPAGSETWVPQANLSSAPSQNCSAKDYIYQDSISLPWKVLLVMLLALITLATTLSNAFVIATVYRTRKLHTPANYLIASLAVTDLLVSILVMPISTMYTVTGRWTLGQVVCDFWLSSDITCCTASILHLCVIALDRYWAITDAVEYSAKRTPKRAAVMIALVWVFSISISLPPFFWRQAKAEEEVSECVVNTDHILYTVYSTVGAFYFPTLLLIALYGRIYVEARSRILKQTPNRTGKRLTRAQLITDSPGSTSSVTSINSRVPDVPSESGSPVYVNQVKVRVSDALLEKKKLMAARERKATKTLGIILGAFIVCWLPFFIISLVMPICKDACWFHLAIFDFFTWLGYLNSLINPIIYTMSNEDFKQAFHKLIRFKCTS
The target in assay [9] is Kappa-type opioid receptor (Homo sapiens, UniProt P41145). As to the kind of experiment: Binding affinity to cloned Opioid receptor kappa 1.
Chain of Kappa-type opioid receptor (P41145 whole entry): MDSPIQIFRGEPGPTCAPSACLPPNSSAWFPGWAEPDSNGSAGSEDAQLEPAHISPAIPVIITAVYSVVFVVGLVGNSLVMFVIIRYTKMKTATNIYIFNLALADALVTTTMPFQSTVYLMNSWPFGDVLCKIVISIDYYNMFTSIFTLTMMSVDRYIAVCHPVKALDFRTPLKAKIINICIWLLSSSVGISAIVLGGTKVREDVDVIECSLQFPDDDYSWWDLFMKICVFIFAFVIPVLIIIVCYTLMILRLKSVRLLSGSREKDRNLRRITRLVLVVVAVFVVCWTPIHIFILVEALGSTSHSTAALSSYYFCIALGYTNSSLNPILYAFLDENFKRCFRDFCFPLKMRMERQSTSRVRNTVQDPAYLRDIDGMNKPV
The target in a further assay is D(3) dopamine receptor (Rattus norvegicus, UniProt P19020). As to the kind of experiment: In vitro binding affinity to cloned rat Dopamine receptor D3 measured by displacement of the radioligand [3H]sulpiride. Further details: […].
Chain of D(3) dopamine receptor (P19020 whole entry): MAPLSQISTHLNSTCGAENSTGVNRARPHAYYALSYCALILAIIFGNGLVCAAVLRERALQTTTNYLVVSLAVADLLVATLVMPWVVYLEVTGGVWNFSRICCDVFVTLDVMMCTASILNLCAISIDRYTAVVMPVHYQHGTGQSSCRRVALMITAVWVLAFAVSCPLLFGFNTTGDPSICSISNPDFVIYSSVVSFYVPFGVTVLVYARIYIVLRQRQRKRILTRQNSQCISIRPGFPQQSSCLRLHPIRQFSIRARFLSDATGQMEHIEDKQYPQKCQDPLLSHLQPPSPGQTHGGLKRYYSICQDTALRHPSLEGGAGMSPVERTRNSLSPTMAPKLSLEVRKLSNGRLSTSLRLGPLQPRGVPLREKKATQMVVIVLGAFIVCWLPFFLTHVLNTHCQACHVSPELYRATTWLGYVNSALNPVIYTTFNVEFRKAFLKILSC
Assay [10] deals with T4, 5-hydroxytryptamine receptor 1A (Homo sapiens, UniProt P08908).
T4 sequence (P08908 whole entry): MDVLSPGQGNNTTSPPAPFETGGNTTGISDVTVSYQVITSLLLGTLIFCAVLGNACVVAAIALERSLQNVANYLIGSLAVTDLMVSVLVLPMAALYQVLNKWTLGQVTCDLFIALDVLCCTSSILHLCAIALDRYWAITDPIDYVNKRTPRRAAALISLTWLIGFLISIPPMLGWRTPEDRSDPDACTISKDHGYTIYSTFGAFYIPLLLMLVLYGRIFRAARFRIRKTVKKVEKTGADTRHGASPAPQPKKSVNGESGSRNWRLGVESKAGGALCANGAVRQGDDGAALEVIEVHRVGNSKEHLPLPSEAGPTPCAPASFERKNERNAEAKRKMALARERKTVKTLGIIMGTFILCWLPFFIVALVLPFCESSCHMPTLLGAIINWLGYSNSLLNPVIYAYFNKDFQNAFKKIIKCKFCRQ
As to the kind of experiment: In vitro binding affinity to human 5-hydroxytryptamine 1A receptor.

Assay [11] addresses 5-hydroxytryptamine receptor 2A (Homo sapiens, UniProt P28223). As to the kind of experiment: Binding affinity to cloned human 5-hydroxytryptamine 2A receptor.
In a further assay the target is D(1B) dopamine receptor (Rattus norvegicus, UniProt P25115). As to the kind of experiment: In vitro binding affinity to cloned rat D5 receptor measured by displacement of radioligand [3H]SCH-23,982.
Chain of D(1B) dopamine receptor (P25115 whole entry): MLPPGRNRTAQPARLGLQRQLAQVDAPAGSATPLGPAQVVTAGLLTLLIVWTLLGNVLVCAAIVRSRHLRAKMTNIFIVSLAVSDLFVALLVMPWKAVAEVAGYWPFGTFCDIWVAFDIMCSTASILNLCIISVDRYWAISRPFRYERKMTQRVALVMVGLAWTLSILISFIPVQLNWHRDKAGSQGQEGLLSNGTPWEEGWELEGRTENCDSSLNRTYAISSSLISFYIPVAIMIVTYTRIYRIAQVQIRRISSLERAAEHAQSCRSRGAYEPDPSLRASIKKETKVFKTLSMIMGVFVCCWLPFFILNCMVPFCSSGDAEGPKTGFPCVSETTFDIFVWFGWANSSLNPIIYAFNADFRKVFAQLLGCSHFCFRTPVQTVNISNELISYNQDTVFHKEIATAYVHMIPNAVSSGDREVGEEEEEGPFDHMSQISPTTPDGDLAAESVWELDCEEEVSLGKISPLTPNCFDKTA
The target of another assay is Histamine H1 receptor (Homo sapiens, UniProt P35367). As to the kind of experiment: Binding affinity to cloned Histamine H1 receptor.
Chain of Histamine H1 receptor (P35367 whole entry): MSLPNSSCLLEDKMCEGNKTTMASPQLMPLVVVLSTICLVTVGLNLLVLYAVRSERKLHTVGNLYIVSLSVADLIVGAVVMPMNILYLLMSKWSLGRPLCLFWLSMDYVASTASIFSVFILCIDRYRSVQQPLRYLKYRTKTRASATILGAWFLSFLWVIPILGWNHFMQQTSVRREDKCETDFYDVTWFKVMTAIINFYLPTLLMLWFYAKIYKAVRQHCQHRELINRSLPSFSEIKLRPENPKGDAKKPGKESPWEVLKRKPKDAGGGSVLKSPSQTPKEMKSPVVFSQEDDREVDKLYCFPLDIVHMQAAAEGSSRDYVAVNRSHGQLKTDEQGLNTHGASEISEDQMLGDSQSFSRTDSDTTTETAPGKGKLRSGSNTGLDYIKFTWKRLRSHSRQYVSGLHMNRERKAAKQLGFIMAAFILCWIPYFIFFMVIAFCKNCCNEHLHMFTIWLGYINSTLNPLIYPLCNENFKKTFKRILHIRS
Assay [12] has as its target Delta-type opioid receptor (Homo sapiens, UniProt P41143). As to the kind of experiment: Binding affinity to cloned Opioid receptor delta 1.

Ki data for 8 molecules are collected here from ChEMBL document CHEMBL1134077, “Synthesis of potent and selective dopamine D(4) antagonists as candidate radioligands” (Bioorg Med Chem Lett, 2001).

Molecules are shown by their SMILES.

Chain of Delta-type opioid receptor (P41143 whole entry): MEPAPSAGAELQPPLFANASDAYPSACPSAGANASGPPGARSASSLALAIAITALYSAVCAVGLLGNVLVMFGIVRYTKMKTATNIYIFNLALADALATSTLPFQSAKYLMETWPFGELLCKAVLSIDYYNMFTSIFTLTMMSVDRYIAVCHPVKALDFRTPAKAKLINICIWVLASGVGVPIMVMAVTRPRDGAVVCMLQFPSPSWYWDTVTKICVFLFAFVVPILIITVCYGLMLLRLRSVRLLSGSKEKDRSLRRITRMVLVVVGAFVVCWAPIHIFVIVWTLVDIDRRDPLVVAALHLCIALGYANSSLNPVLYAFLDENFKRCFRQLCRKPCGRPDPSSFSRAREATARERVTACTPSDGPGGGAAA
Chain of Mu-type opioid receptor (P35372 whole entry): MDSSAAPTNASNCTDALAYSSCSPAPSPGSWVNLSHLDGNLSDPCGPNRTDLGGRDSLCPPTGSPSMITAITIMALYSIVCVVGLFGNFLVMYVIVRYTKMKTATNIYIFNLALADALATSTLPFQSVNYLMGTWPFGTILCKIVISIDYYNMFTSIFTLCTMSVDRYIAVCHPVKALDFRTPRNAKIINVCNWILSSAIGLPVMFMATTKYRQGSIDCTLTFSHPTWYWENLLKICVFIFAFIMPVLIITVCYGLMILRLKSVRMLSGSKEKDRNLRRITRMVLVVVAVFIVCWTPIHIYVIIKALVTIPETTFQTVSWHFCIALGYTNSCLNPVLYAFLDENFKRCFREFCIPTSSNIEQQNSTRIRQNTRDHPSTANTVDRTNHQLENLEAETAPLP
Chain of 5-hydroxytryptamine receptor 2A (P28223 whole entry): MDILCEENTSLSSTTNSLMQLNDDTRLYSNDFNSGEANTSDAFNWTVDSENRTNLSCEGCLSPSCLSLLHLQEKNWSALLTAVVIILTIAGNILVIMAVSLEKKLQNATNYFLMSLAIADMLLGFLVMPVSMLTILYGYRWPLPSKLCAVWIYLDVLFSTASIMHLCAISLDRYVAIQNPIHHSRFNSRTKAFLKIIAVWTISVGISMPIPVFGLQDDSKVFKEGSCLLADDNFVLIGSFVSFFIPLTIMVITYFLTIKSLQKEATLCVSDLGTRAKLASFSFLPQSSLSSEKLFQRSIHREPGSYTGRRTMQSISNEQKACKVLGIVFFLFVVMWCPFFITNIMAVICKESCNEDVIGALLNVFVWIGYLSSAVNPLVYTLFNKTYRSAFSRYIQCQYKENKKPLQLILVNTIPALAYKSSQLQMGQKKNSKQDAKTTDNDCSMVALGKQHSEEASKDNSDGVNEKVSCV

As for `Fc1ccccc1N1CCN(Cc2c[nH]c3ncccc23)CC1`, the inhibition constant Ki (usually a measure of affinity in units of concentration, obtained from inhibition or displacement) is over 10 µM in assay [1]; over 10 µM at Mu-type opioid receptor; over 10 µM on D(2) dopamine receptor; 0.0033 µM at D(4) dopamine receptor; over 10 µM in [2]; over 10 µM in [3]. For the same molecule, the inhibition constant (Ki) (in assay [4]; in assay [5]; in assay [6]; in [7]; on Glutamate NMDA receptor; in [8]) was over 10 µM throughout. The inhibitory constant (Ki) in assay [9] was over 10 µM; at D(3) dopamine receptor it was over 10 µM; in assay [10], 0.991 µM; in [11] it was 0.242 µM; on D(1B) dopamine receptor, over 10 µM; on Histamine H1 receptor, over 10 µM. In assay [12], the inhibitory constant (Ki) is over 10 µM.

For the molecule `COc1ccc(N2CCN(Cc3c[nH]c4ncccc34)CC2)cc1`, the inhibition constant Ki in [1] is over 10 µM; on Mu-type opioid receptor, over 10 µM; at D(2) dopamine receptor, over 10 µM; on D(4) dopamine receptor, 0.0036 µM; in assay [2] it was over 10 µM; in assay [3], over 10 µM. In addition, the Ki (in [4]; in [5]; in assay [6]; in [7]; at Glutamate NMDA receptor; in assay [8]) was over 10 µM in each case. For the same molecule, the inhibitory constant (Ki) (in assay [9]; on D(3) dopamine receptor; in [10]; in assay [11]; on D(1B) dopamine receptor; on Histamine H1 receptor) was over 10 µM throughout. In [12], this molecule showed an inhibition constant Ki of over 10 µM.

`CSc1ccc(N2CCN(Cc3c[nH]c4ncccc34)CC2)cc1`: the inhibitory constant (Ki) in assay [1] was over 10 µM; on Mu-type opioid receptor, over 10 µM; at D(2) dopamine receptor it was over 10 µM; on D(4) dopamine receptor it was 0.0047 µM; in [2], over 10 µM; in assay [3], over 10 µM. The inhibition constant (Ki) (in assay [4]; in [5]; in assay [6]; in assay [7]; at Glutamate NMDA receptor; in assay [8]) was over 10 µM throughout. Further, the Ki is over 10 µM in assay [9]; 0.0457 µM at D(3) dopamine receptor; over 10 µM in assay [10]; over 10 µM in assay [11]; over 10 µM on D(1B) dopamine receptor; over 10 µM on Histamine H1 receptor. Also, the Ki in [12] is over 10 µM.

Turning to `c1ccc(-c2ccc(N3CCN(Cc4c[nH]c5ncccc45)CC3)cc2)cc1`, the Ki in assay [1] is over 10 µM; at Mu-type opioid receptor, over 10 µM; on D(2) dopamine receptor, over 10 µM; on D(4) dopamine receptor, 0.148 µM; in assay [2], over 10 µM; in assay [3], over 10 µM. Moreover, the inhibitory constant (Ki) (in assay [4]; in assay [5]; in assay [6]; in assay [7]; at Glutamate NMDA receptor; in assay [8]) was over 10 µM throughout. For the same molecule, the Ki in [9] was over 10 µM; at D(3) dopamine receptor, over 10 µM; in assay [10] it was over 10 µM; in assay [11] it was 1.93 µM; on D(1B) dopamine receptor, over 10 µM; at Histamine H1 receptor, over 10 µM. Also, the inhibition constant Ki in assay [12] is over 10 µM.

Consider `CCCc1ccc(N2CCN(Cc3c[nH]c4ncccc34)CC2)cc1`, for which the inhibitory constant (Ki) in assay [1] is over 10 µM; on Mu-type opioid receptor, over 10 µM; on D(2) dopamine receptor it was over 10 µM; at D(4) dopamine receptor, 0.0067 µM; in assay [2] it was 6.49 µM; in [3], over 10 µM. Besides, the Ki (in assay [4]; in assay [5]; in [6]; in assay [7]; at Glutamate NMDA receptor; in assay [8]) was over 10 µM in each case. Further, the inhibitory constant (Ki) in [9] was over 10 µM; on D(3) dopamine receptor, 0.921 µM; in assay [10], over 10 µM; in assay [11], over 10 µM; on D(1B) dopamine receptor it was over 10 µM; on Histamine H1 receptor, over 10 µM. In addition, the Ki in assay [12] is over 10 µM.

On to `Fc1ccc(N2CCN(Cc3c[nH]c4ncccc34)CC2)cc1`, for which the Ki in assay [1] is over 10 µM; at Mu-type opioid receptor it was over 10 µM; at D(2) dopamine receptor, over 10 µM; at D(4) dopamine receptor, 0.0023 µM; in [2] it was over 10 µM; in [3], over 10 µM. The inhibition constant Ki (in assay [4]; in [5]; in [6]; in assay [7]; at Glutamate NMDA receptor; in [8]) was over 10 µM each time. In addition, the inhibition constant (Ki) in assay [9] was over 10 µM; on D(3) dopamine receptor, over 10 µM; in assay [10] it was 2.76 µM; in [11], 0.232 µM; on D(1B) dopamine receptor it was over 10 µM; at Histamine H1 receptor, over 10 µM. Besides, the Ki in [12] was over 10 µM.

For `C=Cc1ccc(N2CCN(Cc3c[nH]c4ncccc34)CC2)cc1`, the Ki in [1] was over 10 µM; on Mu-type opioid receptor, over 10 µM; on D(2) dopamine receptor, over 10 µM; at D(4) dopamine receptor, 0.0028 µM; in [2] it was over 10 µM; in assay [3], over 10 µM. For the same molecule, the Ki (in assay [4]; in assay [5]; in assay [6]; in assay [7]; on Glutamate NMDA receptor; in assay [8]) was over 10 µM in each case. The Ki in assay [9] was over 10 µM; at D(3) dopamine receptor, over 10 µM; in assay [10], 3.97 µM; in assay [11], 0.509 µM; at D(1B) dopamine receptor, over 10 µM; on Histamine H1 receptor it was over 10 µM. Moreover, the inhibition constant Ki in assay [12] is over 10 µM.

On to `COc1ccccc1N1CCN(Cc2c[nH]c3ncccc23)CC1`, for which the Ki in [1] is over 10 µM; at Mu-type opioid receptor it was over 10 µM; on D(2) dopamine receptor, 0.438 µM; on D(4) dopamine receptor it was 0.0014 µM; in assay [2] it was 7.38 µM; in assay [3], over 10 µM. The Ki (in [4]; in [5]; in assay [6]; in [7]; on Glutamate NMDA receptor; in [8]) was over 10 µM in each case. The Ki in assay [9] is over 10 µM; at D(3) dopamine receptor it was 0.668 µM; in assay [10] it was 0.406 µM; in assay [11], 2.31 µM; on D(1B) dopamine receptor, over 10 µM; at Histamine H1 receptor it was over 10 µM. In [12], this molecule had a Ki of over 10 µM.
